Type in all cases: cell-based, human
For experiment [1], the system named is empty vector-transduced T98G cells. Nature of the experiment: clonogenic assay after one hour cisplatin exposure, empty vector-transduced cells. The conditions noted are these: clones counted 7 to 10 days later, read-out: concentration of cisplatin needed to achieve a 50% reduction in colony count.
The subject of the next experiment is T98 Gp53 cells. As to the kind of experiment: clonogenic/growth assay after one hour cisplatin exposure, cells transduced with wild-type p53 gene. As for the experimental part: 1). Cells. T98G glioblastoma cells (Mercer et al., “Negative growth regulation in a glioblastoma tumor cell line that conditionally expresses human wild-type p53.” (1990) Proc. Natl. Acad. Sci., USA, 87:6166-6170) were obtained from ATCC and cultured at 37° C. in 10% CO2 in Dulbecco's Modified Eagles Medium supplemented with 10% heat inactivated fetal bovine serum, gentamycin, nonessential amino acids, and sodium pyruvate.
2). Plasmids. A plasmid (pLp53RNL) containing the wild-type p53 gene and the neomycin (G418) resistance gene was used. The plasmid pLp53RNL was kindly provided by Dr. Martin Haas (University of California, San Diego), and has been previously described (Cheng et al., “Suppression of acute lymphoblastic leukemia by the human wild-type p53 gene,” (1992) Cancer Res., 53:222-226). This plasmid carries the retroviral sequence Lp53RNL in which wild-type p53 expression is driven from the Moloney murine leukemia virus (MoMLV) LTR. The neomycin resistance gene is driven from the Rous Sarcoma Virus (RSV) promoter.
3). Transfections. The plasmid was introduced into T98G cells using cationic liposomes. […]
5). […] After 7 days, cells were counted or stained with crystal violet. In the latter case, absorbance at 540 nm is proportional to cell viability. […] Clones were counted 7 to 10 days later by staining in 0.5% methylene blue, 70% ETOH. […]

The test system of another experiment is T98G glioblastoma cells. As to the kind of experiment: clonogenic assay after one hour cisplatin exposure, parental cells. The note with it: clones counted 7 to 10 days later, read-out: concentration of cisplatin needed to achieve a 50% reduction in colony count. As for the experimental part:
1). Cells. T98G glioblastoma cells (Mercer et al., “Negative growth regulation in a glioblastoma tumor cell line that conditionally expresses human wild-type p53.” (1990) Proc. Natl. Acad. Sci., USA, 87:6166-6170) were obtained from ATCC and cultured at 37° C. in 10% CO2 in Dulbecco's Modified Eagles Medium supplemented with 10% heat inactivated fetal bovine serum, gentamycin, nonessential amino acids, and sodium pyruvate. […] 5). Control parental T98G cells and T98 Gp53 cells which had been adapted 2 weeks to culture in the absence of the antibiotics G418 were plated in 24 well plates at about 2×10^4 cells per well. The next day they were exposed for one hour to varying concentrations of cisplatin (a chemotherapeutic agent) from 10 to 40 μM in increments of 10 μM. The cisplatin was removed after one hour and replaced with complete medium (DMEM+10% Fetal Bovine Serum) and cells were allowed to grow for 7 days. After 7 days, cells were counted or stained with crystal violet. In the latter case, absorbance at 540 nm is proportional to cell viability. For clonogenic assays, cells were replated following treatment in 6 well plates at 500-1000 cells per well. Clones were counted 7 to 10 days later by staining in 0.5% methylene blue, 70% ETOH. Colony counts from p53 transfectants and parental T98G glioblastoma cells were compared. […] Subsequent assays confirmed this increased sensitivity. […]

1 compound from patent publication US20040072775A1, “Enhancing the sensitivity of tumor cells to therapies” (priority 1994, published 2004) can be followed below.

Each structure is given as a SMILES string.

As to `N.N.[Cl][Pt][Cl]` [cisplatin], the IC50 in experiment [1] was roughly 30 µM; in the experiment on T98 Gp53 cells (cells transduced with wild-type p53 gene, one hour exposure, clones counted 7 to 10 days later, read-out: concentration of cisplatin needed to achieve a 50% reduction in colony count), 15 to 20 µM; in the experiment on T98G glioblastoma cells it was roughly 30 µM. Also, the “sensitivity of T98 Gp53 cells to the effects of cisplatin compared with parental T98G cells (FIG. 1)” value in the experiment on T98 Gp53 cells (cisplatin 10 to 40 μM, one hour) is listed as “considerably more sensitive”.
